Results published in USRE43371E1, “Use of selected cyclosporins for the treatment of hepatitis C infection” (priority 2004, dated 2012).
In brackets after ≈: the same amount, converted by molar mass.

What was measured:
[1] = tested on: HCV replicon-containing MH-14 cells; conditions: cited from earlier work; for HCV RNA accumulation was inhibited: Northern blot and quantitative RT-PCR
[2] = target: T1, cyclophilin (Homo sapiens, UniProt P62937); assay: Peptidyl-prolyl cis-trans isomerase (PPIase) activity of cyclophilin, chymotrypsin-coupled Suc-AAPF-pNA assay; type: biochemical; conditions: compared with substitution in position 4 only
T1 construct: purchased Sigma
Description: Peptidyl-prolyl cis-trans isomerase (PPlase) activity of cyclophilins was determined using a procedure adapted from Kofron et al. (see Biochemistry 30, 6127-6134 (1991); J. Am. Chem. Soc. 114, 2670-2675 (1992)). N-succinylated Ala-Ala-Pro-Phe-para nitro-aniline (Suc-AAPF-pNA, Bachem, Bubendorf, Switzerland) was used as the substrate. The assay was based on the preferential chymotrypsin cleavage of the trans isoform of the Phe-pNA bond in the tetrapeptide Ala-Ala-Pro-Phe-pNA. This cleavage liberates the para-nitroaniline moiety that can be detected and quantitated at 390 nm (ε=11,814 M^−1cm^−1). […] Cis-trans isomerization is catalysed by cyclophilin (PPlase, EC 5.2.1.8). […] Subsequent to the addition of 3.75 mg of chymotrypsin (70 μl of a solution of chymotrypsin in 10 mM HCl), the reaction was initiated by addition of 10 μl of a 3.2 mM solution of Suc-AAPF-pNA in 0.5 M LiCl/trifluoroethanol. The reaction was monitored for 3 min, and an initial rate constant was determined from the data obtained. As a control, an initial rate constant was also determined for a parallel reaction that lacked cyclophilin.

[3] = tested on: CD4+ PBMCs; assay: Mixed lymphocyte reaction, proliferative response of CD4+ PBMCs; type: cell-based; conditions: for immunosuppressive activity (interpretation of Table 2): mixed lymphocyte reaction, 1 μg/ml; for % Stimulation (relative): cyclosporin 1 μg/ml, five days, [3H]-thymidine incorporation
Description: In this assay, cyclosporins were dissolved in ethanol (10 mg/ml). Freshly isolated CD4^+ PBMCs from two healthy donors were mixed subsequent to inactivation by irradiation of one of the populations (stimulator cells; S). […] R) was determined by [^3H]-thymidine incorporation. The assay was conducted reciprocally with the two cell populations, each being inactivated and stimulated in turn. Stimulation (%) of responder cells was calculated by the formula: […] Sample refers to a mixture of stimulator and responder cells. Background represents a control in which only stimulator cells are mixed.

[4] = tested on: Jc1-Luc recombinant virus (HCV strains J6/JFH1) in Huh-7-Lunet and Huh-7.5 cells; assay: Luciferase assay in hepatoma cells infected with Jc1-Luc recombinant HCV; type: cell-based, hepatitis C virus (HCV); conditions: Huh-7-Lunet and Huh-7.5 cells infected with Jc1-Luc; for antiviral activity: 72 hours (FIGS. 1 and 2)
Excerpt: The method used hepatoma cells that had been infected with an infectious full length cheieric HCV construct or the same virus that was modified to carry a luciferase […] gene.
Infectious HCV viruses of full-length chimeric genome between HCV strains J6 and JFH1 (Jc1) were used to inoculate the hepatoma cells of the assays. The construct of Jc1 virus was also modified to obtain a bicistronic genome carrying a luciferase reporter gene (Jc1-Luc). Twenty-four and ninety-six hours after the transfection of RNA transcripts of the genomes by electroporation of Huh-7.5 cells, cell culture supernatant was collected. Supernatants were filtered ([…]) and cell culture infectious dose 50 (CCID50) per ml were determined by the limiting dilution assays according to Lindenbach et al. (Science, 309, (2005), 623-626). The CCID50 were 1.3×105 for Jc1 and 4.2×103 for Jc1-Luc.
Assays used either Huh-7-Lunet or Huh-7.5 cells (Lohmann et al., Science 285(5424), (1999), 110-113). Cells were grown in Dulbecco's modified Eagle's Medium (DMEM; Gibco) supplemented with 10% heat-inactivated fetal bovine serum (FCS) (Integro), 1× non-essential amino acids (Gibco), 100 IU/ml penicillin (Gibco), 100 μg/ml streptomycin (Gibco) or 25 μg/ml hygromycin (Gibco) for Huh-mono cells at 37° C. and 5% CO2. For antiviral (replication) assays, Huh-7-Lunet and Huh-7.5 cells were seeded at a density of 2×104 or 4×10^4 cells per well of a 12-well plate. Twenty four hours later, the medium was replaced by 0.5 ml of the Jc1-Luc virus stock (12-well plates) or 0.25 ml of the Jc1 virus stock (12-well plates).
The inhibition of viral replication were estimated by luciferase assay. To carry out luciferase assay, cells were harvested, washed with PBS and lysed in luciferase lysis buffer (1% Triton X-100, 25 mM glycylglycine, 15 mM MgSO4, 4 mM EGTA, and 1 mM DTT). Firefly luciferase activity was measured according to Krieger et al. (J Virol, 75(10), (2001), 4614-4624). […] Finally, luminescence was measured by using a Lumat LB9507 luminometer (Berthold) for 20 samples.

[5] = target: T2, human recombinant cyclophilin A (Homo sapiens, UniProt P62937); assay: PPIase activity of cyclophilin A, tight binding inhibitor analysis; type: biochemical; conditions: for k: rate constant for the rate limiting reaction; for Et: total enzyme concentration from tight binding fit
T2 construct: purchased Sigma
Description: Commercial human recombinant cyclophilin A (Sigma) was used in the assays. PPlase activity of cyclophilins was determined using a chymotrypsin-coupled spectrophotometric assay according to Garcia-Echverria et al. (BBRC, 191, (1993), 70-75). This method is based on the high trans selectivity of chymotrypsin for peptides of the type N-succinyl-ala-ala-pro-phe-p-nitroanilide. The peptides cleavage liberated the para-nitroaniline moiety that could be detected and quantitated at 390 nm. The hydrolysis of the cis form was limited by the rate of cis-trans isomerisation carried out by cyclophilin A. The peptide was made up in a solution of […] LiCl in 2,2,2-trifluoroethanol at 470 mM to enhance the cis conformer peptides population. The assay was performed on the split beam spectrophotometer and the water bath was set at 5° C. Cyclophilin A (7500 pmol/mg total enzyme concentration; Sigma) were dissolved at 20 nM in a buffer (35 mM HEPES and 0.26 mg/ml chymotrypsin (specific activity 50 units/mg), pH 7.8 with KOH) and were incubated for 6 minutes at room temperature followed by 54 minutes in the water bath. […] Then 3.5 ml of the incubated cyclophilin was added to the sample cuvette. […] Peptide was added at 25 μM to initiate the reaction and the change in absorbance was monitored at 10 data points per second. As a control, rates were also determined for a parallel reaction that lacked cyclophilin. These blank rates of peptide hydrolysis (i.e. in the absence of cyclophilin) were subtracted from rates in the presence of cyclophilin A.
The initial rates obtained from the PPlase assays were analysed by first order regression analysis by using first order transformation of the traces of the time course of the change in the absorbance at 390 nm. Total enzyme concentration (Et), the inhibitor dissociation constant (Ki) and the rate constant for the rate limiting reaction was calculated with the software FigSyS (2003, Biosoft) by fitting the data obtained from the regression analysis in the tight binding inhibitor multiprotein equation.
Once Et, Ki and k were calculated by the computer for a given set of data, a graphic representation of the data was plotted and the line fitted to the points assuming tight inhibitor binding to a single protein, defined by the following equations: v=K*Et*P−K(B−sqrt(B*B−4*C))/2 where B=Et*P+I+Ki and C=Et*P*I.

[6] = tested on: HCV replicon in Huh-9-13 cells; assay: HCV replicon clearance and rebound in Huh-9-13 cells; type: cell-based, hepatitis C virus (HCV); conditions: after 7 consecutive passages at 0.5 or 1 μg/ml; G418 1000 μg/ml for 2 passages (FIG. 3)
Description: Assays used Huh-9-13 cells, human hepatoma cells (Huh-7) (Lohmann et al., Science 285(5424), (1999), 110-113) Cells were grown in the usual complete medium DMEM without G418 pressure.
RT-PCR were performed on extracts of viral RNA of samples taken at different passage points. The forward and reverse primers used were 5′-[sequence]-3′ and 5′-[sequence]-3′, respectively. The fluorogenic probe was 5′-[sequence]-3′. As an internal control, a plasmid containing part of the neomycin phosphotransferase gene sequence was used. Results were analysed and expressed as a quantity of replicon RNA (ng) per 1′000 cells and used to draft a graph.

[7] = Initial phase I clinical studies, safety of oral doses; type: in vivo
Description: Initial phase I clinical studies were carried out to assess the safety of oral doses of [D-MeAla]^3-[EtVal]^4-CsA, and to determine the pharmacokinetic profile and safety profile of the drug substance. […] These side effects were not dose-related.

[8] = tested on: HCV replicon (genotype 1 b) in Huh 5-2 cells
Description: (§1) Assays used Huh 5-2 cells that contained a bicistronic RNA encoding a firefly luciferase-ubiquitin-neomycin phosphotransferase fusion protein and HCV proteins NS3-5. The viral sequences originated from an HCV virus of genotype 1 b. Cells were cultured in RPMI 1640 medium (Gibco) supplemented with 10% fetal calf serum, 2 mM glutamine (Life Technologies), 1× non-essential amino acids (Life Technologies), 100 u/ml penicillin, 100 μg/ml streptomycin and 250 μg/ml G418 (Geneticin, Life Technologies) at 37° C. and 5% CO2. For antiviral (replication) assays, cells were seeded at a density of 7000 cells/well in 96-well View Plates™ (Packard) in the same medium except for G418. After a 24-h incubation, medium was removed, serial dilutions of test compounds in medium were added, and cells were incubated for an additional 72 h.
Antiviral effects were estimated either by luciferase assay or quantitative RT-PCR. To carry out luciferase assays, medium was removed, and cells were washed with PBS. Subsequent to lysis in 50 μl of Glo-lysis buffer (Promega) for 15 min, 50 μl of Stead-Glo Luciferase Assay Reagent (Promega) were added to cell lysates. Luciferase activity was measured using a luminometer, and the signal from each test well was expressed as a percentage of the signal measured in wells of cultures not exposed to a test compound. […]

[9] = tested on: HCV replicon (genotype 1 b) in Huh 5-2 cells; conditions: EC50 derived from RNA titers by quantitative RT-PCR; asterisk = lower of two independently determined values
Description: as §1
Results from these experiments permitted calculation of EC50 for the different cyclosporins, which is the effective concentration required to inhibit HCV replicon replication by 50%, and of CC50, which is the concentration required that inhibits the proliferation of exponentially growing cells by 50%, and a selectivity index SI, which is the ratio between CC50 and EC50.

T2 sequence (P62937 whole entry): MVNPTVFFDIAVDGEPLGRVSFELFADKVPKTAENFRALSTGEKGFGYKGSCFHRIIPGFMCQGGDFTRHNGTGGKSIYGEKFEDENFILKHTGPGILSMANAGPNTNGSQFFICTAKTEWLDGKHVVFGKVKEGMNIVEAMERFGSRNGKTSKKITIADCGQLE
T1 sequence (P62937 whole entry): as above

C/C=C/C[C@@H](C)C(=O)[C@H]1C(=O)N[C@@H](C(C)C)C(=O)N(C)CC(=O)N(C)[C@@H](CC(C)C)C(=O)N[C@@H](C(C)C)C(=O)N(C)[C@@H](CC(C)C)C(=O)N[C@@H](C)C(=O)N[C@H](C)C(=O)N(C)[C@@H](CC(C)C)C(=O)N(C)[C@@H](CC(C)C)C(=O)N(C)[C@@H](C(C)C)C(=O)N1C [PSC 833]
HCV RNA accumulation was inhibited ([1]; MH-14 cells): not

C/C=C/C[C@@H](C)[C@@H](O)[C@H]1C(=O)N[C@@H](CC)C(=O)N(C)[C@H](C)C(=O)N(CC)[C@@H](C(C)C)C(=O)N[C@@H](C(C)C)C(=O)N(C)[C@@H](CC(C)C)C(=O)N[C@@H](C)C(=O)N[C@H](C)C(=O)N(C)[C@@H](CC(C)C)C(=O)N(C)[C@@H](CC(C)C)C(=O)N(C)[C@@H](C(C)C)C(=O)N1C [[D-MeAla]^3-[EtVal]^4-CsA]
further increase in cyclophilin binding activity by substitution in position 3 [2]: ≥ 2 fold | immunosuppressive activity (interpretation of Table 2) [3]: essentially devoid of immunosuppressive activity | antiviral activity [4]: dose-dependent antiviral activity | higher affinity for cyclophilin compared to [MeIle]4-CsA ([5]; cyclophilin A): ~6 fold | k [5]: 0.16 ± 0.0074 s − 1 | Et [5]: 7500 pmol/mg | outcome of cultures in the presence of G418 (rebound phase) [6]: the cultures died | tolerability of oral doses ([7]; doses of 50 to 1600 mg in a micro-emulsion in water): well tolerated | side effects ([7]; oral doses 50 to 1600 mg, not dose-related): Mild and short-lived side effects were observed including nausea, vomiting, abdominal pain, mild headaches

C/C=C/C[C@@H](C)[C@@H](O)[C@H]1C(=O)N[C@@H](CC)C(=O)N(C)CC(=O)N(C)[C@@H]([C@@H](C)CC)C(=O)N[C@@H](C(C)C)C(=O)N(C)[C@@H](CC(C)C)C(=O)N[C@@H](C)C(=O)N[C@H](C)C(=O)N(C)[C@@H](CC(C)C)C(=O)N(C)[C@@H](CC(C)C)C(=O)N(C)[C@@H](C(C)C)C(=O)N1C [[MeIle]^4-CsA]
% Stimulation (relative) ([3]; co-culture R1 × S2): 84% | % Stimulation (relative) ([3]; co-culture R2 × S1): 75% | immunosuppressive activity (interpretation of Table 2) [3]: essentially devoid of immunosuppressive activity | EC50 +/− Std. Dev. ([8]; luciferase assay, 72 h): 0.22 µg/mL (≈ 0.183 µM) | Selectivity index ([8]; ratio between CC50 (MTT) and EC50 (luciferase)): 64 | SI values [9]: 73 | k [5]: 0.17 ± 0.0068 s − 1 | Et [5]: 7500 pmol/mg | effectiveness in reducing HCV RNA titer relative to CsA ([1]; MH-14 cells): about equally as effective as CsA

Cyclosporin A [CsA]
higher concentration needed for the same replication inhibiting effect as [D-MeAla]3-[EtVal]4-CsA [4]: 10 fold | antiviral activity [4]: dose-dependent antiviral activity | k [5]: 0.17 ± 0.0069 s − 1 | Et [5]: 7500 pmol/mg | reduction of HCV RNA titer ([1]; 7-day exposure, 1 μg/ml): about 200 fold | HCV RNA accumulation was inhibited ([1]; MH-14 cells): inhibited
